Data published in patent US11965159B2, “Compositions and methods for regulating proteins and nucleic acids activities” (THE BROAD INSTITUTE, INC., priority 2019, dated 2024).

How the values were obtained:
[1] = target: T1, SpCas9:gRNA complex (Streptococcus pyogenes serotype M1, UniProt Q99ZW2); experiment: Compound-Cas9 interaction in Bio-Layer Interferometry (BLI); type: binding; conditions: excess (10×) of biotin to BRD7087 loading
T1 construct: His6 (N, cleaved yes); made in house; host or cells: E. coli BL21 Star (DE3)
Method: Compound-Cas9 interaction in BLI. The experiments were performed in a 96-well format with 180 μL reaction volume using biotinylated compound BRD7087-Biotin and streptavidin sensors. 1 μM of the biotinylated compound was loaded onto the sensors for 180s in 20 mM Tris buffer of pH 7.4, 100 mM KCl, 5 mM MgCl2, 1 mM DTT, 0.01% Tween. The compound loaded sensors were then allowed to associate with the different concentration of SpCas9:gRNA complex (1-0.15 μM) for 300s followed by dissociation in the reaction buffer. Reference sensor was loaded with compound and allowed to associate and dissociate in the reaction buffer alone. The response curves were fitted with a 2:1 stoichiometric model and a global fit steady-state analysis were performed using manufacturer inbuilt protocol. The experiment was performed in three replicates.
The competitive experiments were performed using Biotin-linker fragment. In this experiment, streptavidin sensors were pre-incubated with 10 μM of Biotin-linker before dipping into a solution of either 1 μM BRD7087-Biotin or reaction buffer alone. Sensors were then allowed to associate with different concentration of SpCas9:gRNA complex or buffer alone.
Compound-Cas9 interaction in BLL The experiments were performed in a 96-well format with 180 μL reaction volume using biotinylated compound BRD7087-Biotin and streptavidin sensors. […]

[2] = target: SpCas9 (Streptococcus pyogenes serotype M1, UniProt Q99ZW2); experiment: Cas9 nuclease activity in EGFP disruption assay in U2OS.eGFP.PEST cells; type: cell-based; design: host or cells: U2OS.eGFP-PEST; conditions: 10, 15, 20 μM, 24 h
Method: Cas9 Nuclease activity in EGFP disruption assay. Approximately 200,000 U2OS.eGFP-PEST cells were nucleofected with 400 ng of SpCas9 (Addgene Plasmid #43861) and 40 ng of sgRNA (pFYF1320 EGFP Site #1, Addgene Plasmid #47511) expressing plasmids along with a Td-tomato-encoding plasmid using the SE Cell Line 4D-Nucleofector™ X Kit (Lonza™) according to the manufacturer's protocol. Approximately 20,000 transfected cells/well in 3 replicates were plated in a 96-well plate (Corning® 3904). Cells were allowed to grow in the indicated amount of compound or DMSO for 24 h post transfection. Cells were then fixed using 4% paraformaldehyde and imaged with the HCS NuclearMask™ Blue Stain (Life Technologies™) as the nuclear counter-staining agent. Imaging was performed with an IXM 137204 ImageXpress® Automated High Content Microscope (Molecular Devices™) at 10× magnification under three excitation channels (blue, green and red) with 9 acquiring sites per well. Images were analyzed in the MetaXpress® software and data were plotted using GraphPad Prism 6. The Z′-value was calculated following the formula: […]
Cas9 Nuclease activity in EGFP disruption assay. In some embodiments, a quantitative human cell-based reporter assay that enables rapid quantitation of targeted nuclease activities is used to characterize off-target cleavage of CRISPR protein-based RNA guided endonucleases. In this assay, the activities of nucleases targeted to a single integrated EGFP reporter gene can be quantified by assessing loss of fluorescence signal in human U2OS.EGFP cells caused by inactivating frameshift insertion/deletion (indel) mutations introduced by error prone non-homologous end-joining (NHEJ) repair of nuclease-induced double-stranded breaks (DSBs).
Approximately 200,000 U2OS.eGFP-PEST cells were nucleofected with 400 ng of SpCas9 (Addgene Plasmid #43861) and 40 ng of sgRNA (pFYF1320 EGFP Site #1, Addgene Plasmid #47511) expressing plasmids along with a Td-tomato-encoding plasmid using the SE Cell Line 4D-Nucleofector™ X Kit (Lonza™) according to the manufacturer's protocol. […]

Sequence of SpCas9 (Q99ZW2 whole entry): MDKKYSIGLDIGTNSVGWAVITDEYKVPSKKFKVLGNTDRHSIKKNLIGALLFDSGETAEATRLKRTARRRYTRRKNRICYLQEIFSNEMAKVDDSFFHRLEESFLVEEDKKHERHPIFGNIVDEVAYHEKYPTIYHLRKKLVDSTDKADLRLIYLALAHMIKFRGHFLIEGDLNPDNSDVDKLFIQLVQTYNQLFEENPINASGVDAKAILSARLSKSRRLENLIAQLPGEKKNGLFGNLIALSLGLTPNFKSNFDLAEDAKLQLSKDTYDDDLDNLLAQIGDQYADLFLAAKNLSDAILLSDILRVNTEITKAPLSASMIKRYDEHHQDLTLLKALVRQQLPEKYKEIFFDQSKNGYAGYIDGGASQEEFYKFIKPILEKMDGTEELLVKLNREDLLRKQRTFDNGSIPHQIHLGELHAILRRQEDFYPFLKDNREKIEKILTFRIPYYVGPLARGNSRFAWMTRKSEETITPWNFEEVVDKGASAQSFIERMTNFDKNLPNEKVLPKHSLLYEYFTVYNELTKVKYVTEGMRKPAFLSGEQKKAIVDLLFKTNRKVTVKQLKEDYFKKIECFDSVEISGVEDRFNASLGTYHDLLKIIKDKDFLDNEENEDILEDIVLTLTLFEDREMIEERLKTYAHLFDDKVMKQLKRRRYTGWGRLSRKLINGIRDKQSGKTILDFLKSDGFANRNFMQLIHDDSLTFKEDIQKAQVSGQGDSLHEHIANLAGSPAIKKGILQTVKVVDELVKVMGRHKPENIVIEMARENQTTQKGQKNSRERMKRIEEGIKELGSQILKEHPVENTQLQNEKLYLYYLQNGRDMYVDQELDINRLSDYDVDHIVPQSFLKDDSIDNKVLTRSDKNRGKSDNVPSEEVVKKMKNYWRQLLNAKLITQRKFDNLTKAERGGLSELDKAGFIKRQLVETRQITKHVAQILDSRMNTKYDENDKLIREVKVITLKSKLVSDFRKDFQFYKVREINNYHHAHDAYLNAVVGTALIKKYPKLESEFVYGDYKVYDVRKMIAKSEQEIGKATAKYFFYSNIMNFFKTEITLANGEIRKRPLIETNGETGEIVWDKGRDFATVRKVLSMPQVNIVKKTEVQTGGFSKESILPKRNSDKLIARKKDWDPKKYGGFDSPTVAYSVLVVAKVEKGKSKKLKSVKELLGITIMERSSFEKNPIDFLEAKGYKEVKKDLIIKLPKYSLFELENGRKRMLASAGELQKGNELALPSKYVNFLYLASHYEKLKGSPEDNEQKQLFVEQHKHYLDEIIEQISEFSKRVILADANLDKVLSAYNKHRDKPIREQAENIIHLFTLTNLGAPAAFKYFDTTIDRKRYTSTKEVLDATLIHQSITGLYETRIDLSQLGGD
T1 sequence (Q99ZW2 whole entry, one chain of several): as the sequence (Q99ZW2 whole entry) above

| Structure (SMILES) | BLI response signal in competitive experiment [1] | potency of stereoisomers in EGFP-disruption assay relative to BRD7087 / BRD5779 [2] |
| --- | --- | --- |
| O=C(CCCC[C@@H]1SC[C@@H]2NC(=O)N[C@@H]21)NCCOCCOCCOCCC(=O)Nc1cccc(-c2ccc3c(c2)[C@H]2[C@H](CCN2Cc2ccncc2)[C@@H](CO)N3)c1 [biotin-conjugate of BRD7087, N-(2-(2-(2-(3-((3-((3aR,4S,9bR)-4-(Hydroxymethyl)-1-(pyridin-4-ylmethyl)-2,3,3a,4,5,9b-hexahydro-1H-pyrrolo[3,2-c]quinolin-8-yl)phenyl)amino)-3-oxopropoxy)ethoxy)ethoxy)ethyl)-5-((3aS,4S,6aR)-2-oxohexahydro-1H-thieno[3,4-d]imidazol-4-yl)pentanamide] | no substantial response signal |  |
| OC[C@H]1Nc2ccc(-c3cccc(F)c3)cc2[C@@H]2[C@H]1CCN2Cc1ccncc1 [BRD0750, ((3aS,4S,9bS)-8-(3-Fluorophenyl)-1-(pyridin-4-ylmethyl)-2,3,3a,4,5,9b-hexahydro-1H-pyrrolo[3,2-c]quinolin-4-yl)methanol] |  | less potent |
| OC[C@@H]1Nc2ccc(-c3cccc(F)c3)cc2[C@H]2[C@@H]1CCN2Cc1ccncc1 [BRD2161, ((3aR,4R,9bR)-8-(3-Fluorophenyl)-1-(pyridin-4-ylmethyl)-2,3,3a,4,5,9b-hexahydro-1H-pyrrolo[3,2-c]quinolin-4-yl)methanol] |  | less potent |
| OC[C@@H]1Nc2ccc(-c3cccc(F)c3)cc2[C@@H]2[C@H]1CCN2Cc1ccncc1 [BRD5039, ((3aS,4R,9bS)-8-(3-Fluorophenyl)-1-(pyridin-4-ylmethyl)-2,3,3a,4,5,9b-hexahydro-1H-pyrrolo[3,2-c]quinolin-4-yl)methanol] |  | equipotent as BRD7087 |
